For eight molecules, KDapp results are on record in PMC11865577 (2024).

For assay [1], the system named is hsa-mir-6850 (RNA, G4) AGCCGGGGCGGGAGGGGAAGGGACGCCCGGCU
Kind of assay: fluorescence titration. The note with it: 20 mM NaCl, 80 mM KCl, apparent.

Assay [2] concerns hsa-mir-191 (RNA, miRNA) AGCCAGCUGUUGUCUCCAGAGCAUUCCAGCUGGCU
Kind of assay: fluorescence titration. The note with it: 20 mM NaCl, 80 mM KCl, phosphate pH 7.0, apparent.

The subject of assay [3] is hsa-mir-21 (RNA, miRNA) AGCGUUGACUGUUGAAUCUCAUGGCAACGCU
The assay can be described thus: fluorescence titration. The note with it: 20 mM NaCl, 80 mM KCl, phosphate pH 7.0, apparent.

In assay [4] the test system is hsa-mir-221 (RNA, miRNA) AGCAGAUUUCUGUGUUCGUUAGGCAACAGCUGCU
Kind of assay: fluorescence titration. The note with it: 20 mM NaCl, 80 mM KCl, phosphate pH 7.0, apparent.

Assay [5] relates to hsa-mir-374a (RNA, miRNA) AGCUAAGUGUUAUAGCACUUAGCU
The assay can be described thus: fluorescence titration. The note with it: 20 mM NaCl, 80 mM KCl, phosphate pH 7.0, apparent.

Assay [6] relates to hsa-mir-4437 (RNA, miRNA) AGCUCCACAAGGAGGGGAUGACCCUUGUGGGGCU
The assay can be described thus: fluorescence titration. The following applies: 20 mM NaCl, 80 mM KCl; 20 mM phosphate pH 7.0, 1% DMSO, 20 °C; apparent.

Assay [7] deals with hsa-mir-4520-1 loop (RNA, miRNA) AGCCCAAAUCAGAAAAGGAUUUGGGCU
Kind of assay: fluorescence titration. The following applies: 20 mM NaCl, 80 mM KCl; 20 mM phosphate pH 7.0, 1% DMSO, 20 °C; apparent.

Assay [8] relates to hsa-mir-4520-1-mutG2A (RNA, miRNA) AGCCCAAAUCAAAAAAGGAUUUGGGCU
Kind of assay: fluorescence titration. The note with it: 20 mM NaCl, 80 mM KCl; 20 mM phosphate pH 7.0, 1% DMSO, 20 °C; apparent.

For assay [9], the system named is hsa-mir-4520-1-mutG7A (RNA, miRNA) AGCCCAAAUCAGAAAAAGAUUUGGGCU
Kind of assay: fluorescence titration. The following applies: 20 mM NaCl, 80 mM KCl; 20 mM phosphate pH 7.0, 1% DMSO, 20 °C; apparent.

Assay [10] has as its system hsa-mir-4520-1 mutG2,7A (RNA, miRNA) AGCCCAAAUCAAAAAAAGAUUUGGGCU
Kind of assay: fluorescence titration. The following applies: 20 mM NaCl, 80 mM KCl; 20 mM phosphate pH 7.0, 1% DMSO, 20 °C; apparent.

For assay [11], the system named is hsa-mir-6847 (RNA, miRNA) AGCGAGCUGGAAGGAGUGGGCCUGGCUCGCU
Kind of assay: fluorescence titration. The following applies: 20 mM NaCl, 80 mM KCl; 20 mM phosphate pH 7.0, 1% DMSO, 20 °C; apparent.

For assay [12], the system named is G4_(GGGU)6 (RNA, G4) AGCGGGUGGGUGGGUGGGUGGGUGGGUGCU
Kind of assay: fluorescence titration. The following applies: 20 mM NaCl, 80 mM KCl; 20 mM phosphate pH 7.0, 1% DMSO, 20 °C; apparent.

Assay [13] deals with hsa-mir-4773-1 (RNA, miRNA) AGCUCUGCUUUAUUUCAUCAAAGCAGAGCU
The assay can be described thus: fluorescence titration. The following applies: 20 mM NaCl, 80 mM KCl; 20 mM phosphate pH 7.0, 1% DMSO, 20 °C; apparent.

Assay [14] relates to common stem sequence with four Us in the terminal loop (RNA, hairpin) GUGUACGAAGUUUCAGCUUUUGCUGAAGCUUCGUGCAC
The assay can be described thus: fluorescence titration. The following applies: 20 mM NaCl, 80 mM KCl; 20 mM phosphate pH 7.0, 1% DMSO, 20 °C; apparent.

In assay [15] the test system is mutG7A (biotinylated) (RNA, miRNA) AGCCCAAAUCAGAAAAAGAUUUGGGCU
The assay can be described thus: SPR, multi-cycle, 1:1 fit. The note with it: 20 mM NaCl, 80 mM KCl; 20 mM phosphate pH 7.0, 1% DMSO, 25 °C; up to 50 μM; apparent. (In general: SPR reads the build-up and loss of mass on a sensor chip optically.)

Assay [16] concerns hsa-mir-4520-1 loop (biotinylated) (RNA, miRNA) AGCCCAAAUCAGAAAAGGAUUUGGGCU
The assay can be described thus: SPR, single-cycle kinetics. The following applies: 20 mM NaCl, 80 mM KCl; 20 mM phosphate pH 7.0, 25 °C; apparent.

In assay [17] the test system is mutG2A (biotinylated) (RNA, miRNA) AGCCCAAAUCAAAAAAGGAUUUGGGCU
Kind of assay: SPR, single-cycle kinetics. The following applies: 20 mM NaCl, 80 mM KCl; 20 mM phosphate pH 7.0, 25 °C; apparent.

[18] abbreviates: 20 mM phosphate pH 7.0, 1% DMSO, 20 °C, 0.1 μM compound.
Where [19] appears, read: 1 μM compound, range 2.6-16 μM for all RNAs.

Each structure is given as a SMILES string.

With `CN1C(=CC=Cc2cc[n+](CCC[N+](C)(C)C)c3ccccc23)Sc2ccccc21`, in [1] (setting [18]), the KDapp came out at 0.19 µM.

For `COc1ccc2c(c[n+](C)c3c4cc5c(cc4ccc23)OCO5)c1OC`, the KDapp in [1] (phosphate pH 7.0, 1 μM compound, range 2.6-16 μM for all RNAs) is 4.0 ± 0.5 µM; in assay [2] (setting [19]), 3.8 ± 0.5 µM; in assay [3] (setting [19]), 2.6 ± 0.6 µM; in assay [4] (setting [19]), 3.8 ± 0.3 µM; in assay [5] (setting [19]) it was 12 ± 1 µM.

In the case of `C[n+]1c(C=C2C=CN(CCC[N+](C)(C)C)c3ccccc32)sc2ccccc21`, the KDapp in assay [1] (setting [18]) was 0.20 µM.

For the molecule `C[n+]1ccc(C=C2Sc3ccccc3N2CCCCC(=O)NCCOCCOCCOCCN=[N+]=[N-])c2ccccc21`, the KDapp in assay [6] is 4.4 µM.

In the case of `N#CC(c1ccnc(OCc2ccc(CN3CCOCC3)cc2)n1)c1nc2ccccc2s1` (stereo not shown), the KDapp in assay [1] (phosphate pH 7.0, 1 μM compound) was 4.5 µM; in assay [2] (1 μM compound) it was 14 µM; in assay [3] (1 μM compound), 20 µM.

Turning to `O=c1c(O)c(-c2cc(O)c(O)c(O)c2)oc2cc(O)cc(O)c12`, the KDapp in [1] (phosphate pH 7.0) is 3.3 ± 0.1 µM; in assay [2] (range 16-25 μM for target RNAs), 25 ± 3 µM; in assay [3] (range 16-25 μM for target RNAs), 16 ± 0.5 µM; in assay [4] (range 16-25 μM for target RNAs) it was 20 ± 2 µM; in [5] (0-40 μM RNA, low-rank RNA), above 40 µM.

`O=c1cc(-c2ccccc2)oc2cc(O)c(O)c(O)c12`: the KDapp in assay [2] (0-40 μM RNA), in [3] (0-40 μM RNA) and in assay [4] (0-40 μM RNA) was above 40 µM in each case.

Turning to `[N-]=[N+]=NCCOCCOCCOCCNC(=O)Cn1cc2c(nc1=O)Nc1c(OCCN)cccc1O2`, the KDapp came to 0.024 µM in [7]; 0.011 µM in assay [8]; 15 µM in [9]; 3.7 µM in [10]; 0.022 µM in assay [11]; 0.19 µM in assay [1] (20 mM phosphate pH 7.0, 1% DMSO, 20 °C). In addition, the KDapp in assay [12] is 0.15 µM; in assay [13], above 20 µM; in assay [14], 9 µM; in [15] it was above 50 µM; in assay [16], 0.10 ± 0.02 µM; in assay [17], 0.044 ± 0.008 µM.
